ChEMBL document CHEMBL6109107, “Exploring the broad-spectrum activity of carbohydrate-based Iberin analogues: From anticancer effect to antioxidant properties” (Eur J Med Chem, 2025)
pEC50, pIC50: −log10 of the molar value. The source made the active and inactive calls. The rule behind the calls is not given here.

Experiments:
[1] = Cytotoxicity against human Arec32 cells assessed as cell viability by MTT assay; type: toxicity, cell-based
MeWo = experiment: Cytotoxicity against human MeWo cells assessed as reduction in cell viability incubated for 72 hrs by resazurin dye based assay; type: functional
A549 [2] = experiment: Cytotoxicity against human A549 cells assessed as reduction in cell viability incubated for 72 hrs by resazurin dye based assay; type: functional; details: A549, 72 h
Arec32 [3] = experiment: Induction of Nrf2 activity in human Arec32 cells assessed as drug concentration required to double luciferase expression incubated for 24 hrs by luminescence based plate reader analysis; type: cell-based; details: filed as activator
[4] = Cytotoxicity against human HaCaT cells assessed as reduction in cell viability incubated for 72 hrs by resazurin dye based assay; type: toxicity
[5] = Selectivity index, ratio of IC50 for human HaCaT cells to IC50 for human T24 cells; type: toxicity; details: HaCaT cells versus T24 cells, read-out: Ratio IC50
T-24 = experiment: Cytotoxicity against human T24 cells assessed as reduction in cell viability incubated for 72 hrs by resazurin dye based assay; type: functional; details: T-24, 72 h
[6] = Selectivity index, ratio of IC50 for human HaCaT cells to IC50 for human A549 cells; type: toxicity; details: HaCaT cells versus A549 cells, read-out: Ratio IC50
[7] = Selectivity index, ratio of IC50 for human HaCaT cells to IC50 for human MeWo cells; type: toxicity; details: HaCaT cells versus MeWo cells, read-out: Ratio IC50
Arec32 [8] = experiment: Induction of Nrf2 activity in human Arec32 cells assessed as increase in luciferase expression at >30 uM incubated for 24 hrs by luminescence based plate reader analysis; type: cell-based
A549 [9] = experiment: Cytotoxicity against human A549 cells assessed as inhibition of cell growth incubated for 72 hrs by MTT assay; type: functional, cell-based; details: A549, 72 h

Structure (SMILES) | pEC50 [1] | pIC50 (MeWo) | pIC50 (A549 [2]) | CD (Arec32 [3]) | IC50 at 72 h [4] | selectivity ratio [5] | pIC50 (T-24) | selectivity ratio [6] | selectivity ratio [7] | Activity (Arec32 [8]) | pIC50 (A549 [9])
CC(=O)OC[C@H]1O[C@@H](N=C=S)[C@H](OC(C)=O)[C@@H]([S@@+]([O-])c2ccccc2)[C@@H]1OC(C)=O | < 4.52 | 4.17 | 4.13 | 1.55 µM | 59.1 µM | 1.1 | 4.25 | 0.8 | 0.9 | – | –
CC(=O)OC[C@H]1O[C@@H](N=C=S)[C@H](OC(C)=O)[C@@H](S(=O)(=O)c2ccccc2)[C@@H]1OC(C)=O | < 4.52 | 4.64 | 4.39 | 2.09 µM | 27.5 µM | 1.6 | 4.77 | 0.7 | 1.2 | – | –
CS[C@@H]1[C@@H](OC(C)=O)[C@H](N=C=S)O[C@H](COC(C)=O)[C@H]1OC(C)=O | < 4.52 | 4.33 | 4.32 | – | 45.3 µM | 1.5 | 4.51 | 0.9 | 1 | inactive | –
CCS(=O)(=O)[C@@H]1[C@@H](OC(C)=O)[C@H](N=C=S)O[C@H](COC(C)=O)[C@H]1OC(C)=O | < 4.52 | 4.48 | 4.26 | 10.4 µM | 35.2 µM | 2 | 4.74 | 0.6 | 1.1 | – | –
CC[S+]([O-])[C@@H]1[C@@H](OC(C)=O)[C@H](N=C=S)O[C@H](COC(C)=O)[C@H]1OC(C)=O (mixture of isomers) | < 4.52 | 3.93 | 3.81 | 6.32 µM | 141 µM | 1.1 | 3.95 | 0.9 | 1.1 | – | –
C[S+]([O-])CCCN=C=S (racemic) | < 4.52 | 4.48 | 4.68 | 3.12 µM | 33 µM | 2.9 | 4.91 | 1.8 | 1 | – | 4.52
CC(=O)OC[C@H]1O[C@@H](N=C=S)[C@H](OC(C)=O)[C@@H](OC(C)=O)[C@@H]1OC(C)=O | < 4.52 | 4.24 | 4.19 | – | 71.4 µM | 1.5 | 4.31 | 1.1 | 1.2 | inactive | –
CC(=O)OC[C@H]1O[C@@H](N=C=S)[C@H](OC(C)=O)[C@@H]([S@+]([O-])c2ccccc2)[C@@H]1OC(C)=O | < 4.52 | 4.24 | 4.23 | 2.09 µM | 61.2 µM | 1.3 | 4.31 | 1 | 1.1 | – | –
CC(=O)OC[C@H]1O[C@@H](N=C=S)[C@H](OC(C)=O)[C@@H]([S+](C)[O-])[C@@H]1OC(C)=O (mixture of isomers) | < 4.52 | 3.75 | 3.74 | 5.75 µM | 180 µM | 1.1 | 3.80 | 1 | 1 | – | –
CS(=O)(=O)CCCN=C=S | < 4.52 | 4.53 | 4.60 | 3.22 µM | 35.9 µM | 3.3 | 4.97 | 1.9 | 1.3 | – | –
CC(=O)OC[C@H]1O[C@@H](N=C=S)[C@H](OC(C)=O)[C@@H](Sc2ccccc2)[C@@H]1OC(C)=O | < 4.52 | 4.54 | 4.60 | – | 23.2 µM | 1.2 | 4.71 | 1 | 0.9 | inactive | –
CSCCCN=C=S | < 4.52 | 4.50 | 4.51 | 2.94 µM | 43.9 µM | 3.2 | 4.84 | 1.7 | 1.5 | – | 4.32
Nc1ccn([C@@H]2O[C@H](CO)[C@@H](O)C2(F)F)c(=O)n1 [GEMCITABINE] | – | 5.28 | 5.52 | – | 7.1 µM | 4.2 | 5.68 | 2.6 | 1.6 | – | –
CC(C)(C)c1cc(O)ccc1O [E319] | < 4.52 | – | – | 1.68 µM | – | – | – | – | – | – | –
CC(=O)OC[C@H]1O[C@@H](N=C=S)[C@H](OC(C)=O)[C@@H](S(C)(=O)=O)[C@@H]1OC(C)=O | < 4.52 | 4.41 | 4.20 | 6.21 µM | 40.1 µM | 2 | 4.70 | 0.6 | 1.2 | – | –
CCS[C@@H]1[C@@H](OC(C)=O)[C@H](N=C=S)O[C@H](COC(C)=O)[C@H]1OC(C)=O | < 4.52 | 4.30 | 4.31 | – | 46.3 µM | 1.5 | 4.50 | 0.9 | 0.9 | inactive | –
